# How the values were obtained:
# Type in all cases: in vivo
# senior dogs [1] = assay: Dog food mixed with GABA fed to senior dogs, observation of age-related conditions; details: 2 weeks
# Method: Dog food was mixed with GABA (30 mg/kg body weight). Mongrel dog A (17 years old) was fed this mixture once a day in the evening for 2 weeks. […] Dog food was mixed with GABA (30 mg/kg body weight). Mongrel dog B (14 years old) was fed this mixture once a day for 2 weeks. […] Dog food was mixed with GABA (30 mg/kg body weight). Toy poodle A (15 years old) was fed this mixture once a day for 2 weeks. […] Dog food was mixed with GABA (30 mg/kg body weight). Toy poodle B (12 years old) was fed this mixture once a day for 2 weeks. […] Dog food was mixed with GABA (30 mg/kg body weight). Pomeranian A (14 years old) was fed this mixture once a day for 2 weeks. […] Dog food was mixed with GABA (30 mg/kg body weight). Shiba Ken (Japanese breed) A (16 years old) was fed with this mixture once a day for 2 weeks.
# sympathetic nerve = assay: RR interval by Holter ECG after oral GABA in Beagle dogs; details: 10 month old Beagle dogs
# Method: Three 10 month old Beagle dogs were confined in darkness from 19:00 (7pm) until 7:00 (7am). An electrocardiogramr was obtained under free movement using a Holter ECG recorder (wireless installation-type ECG recorder). An electrocardiogram was obtained every 30 minutes for 1 minute. A capsule containing 300 mg/kg body weight of GABA was orally administered to each dog just before the dark period. As a control, an empty capsule was administered.
# An RR interval (msec, inverse number of a heart rate) relative to the time that lapsed after administration was measured.
# senior dogs [2] = assay: Intravenous SKF 97541 in a senior dog, turning motion; details: Shiba Ken B (15 years old), single intravenous dose of from 0.01 to 0.1 mg/kg body weight
# Method: SKF 97541 was intravenously administered once to Shiba Ken B (15 years old) at a dose of from 0.01 to 0.1 mg/kg body weight.
# [3] = Mongrel dog B (14 years old), 30 mg/kg body weight in dog food once a day
# [4] = Pomeranian A (14 years old), 30 mg/kg body weight in dog food once a day
# [5] = Shiba Ken A (16 years old), 30 mg/kg body weight in dog food once a day
# [6] = Toy poodle A (15 years old), 30 mg/kg body weight in dog food once a day
# [7] = Toy poodle B (12 years old), 30 mg/kg body weight in dog food once a day
SMILES,"forced and labored breathing (senior dogs [1]; Mongrel dog A (17 years old), 30 mg/kg body weight in dog food once a day in the evening)",drinking behaviour (senior dogs [1]; [3]),leg trembling (senior dogs [1]; [3]),mobility and general health (senior dogs [1]; [3]),continuous sleeping all day long (senior dogs [1]; [4]),desire to go for a walk (senior dogs [1]; [4]),general health and activity level (senior dogs [1]; [4]),ability to move around (senior dogs [1]; [5]),mobility (senior dogs [1]; [5]),behaviour towards owner (senior dogs [1]; [6]),difficult breathing (senior dogs [1]; [6]),"sense of hearing and sense of smell, mobility and general health (senior dogs [1]; [6])",mobility (senior dogs [1]; [7]),walking (tottering steps before administration) (senior dogs [1]; [7]),stimulus of the sympathetic nerve (sympathetic nerve; GABA 300 mg/kg body weight oral capsule),"average RR interval (inverse number of a heart rate) (sympathetic nerve; GABA 300 mg/kg body weight oral capsule before dark period, approximately 2 to 9 hours after administration, vs empty capsule)",turning motion (senior dogs [2])
"NCCCC(=O)O [GABA, γ-aminobutyric acid]",disappeared,drank water on its own,disappeared,improvement in mobility and general health was observed,decreased,clearly showed signs that he wanted to go for a walk,improvement in general health and activity level was observed,able to move around easier and clearly with less pain,improvement in mobility was observed,sought out his owner and wanted to stay by him,decreased,improvement,improvement in mobility was observed,walked firmly with steady steps,stimulus of the sympathetic nerve was observed,shortened,–
"CP(=O)(O)CCCN [SKF 97541, 3-aminopropyl(methyl)phosphinic acid]",–,–,–,–,–,–,–,–,–,–,–,–,–,–,–,–,eliminated at any dose

# From patent US20050106220A1, “Agent for improving mobility and general health of senior companion animals” (priority 2003, published 2005)
